Measured values: patent US11345681B1, “Inhibitors of fibroblast growth factor receptor kinases” (Kinnate Biopharma Inc., priority 2020, dated 2022)

Molecular target: Wild type FGFR2 (Homo sapiens (Human), UniProt P21802)
Assay: FGFR2 kinase assay (fluorescence-based microfluidic mobility shift assay)
Format: biochemical
Conditions: wild type FGFR2 0.06 nM, 100 μM ATP, 80 minutes at room temperature; class symbols

Sequence of Wild type FGFR2 (P21802 22-821): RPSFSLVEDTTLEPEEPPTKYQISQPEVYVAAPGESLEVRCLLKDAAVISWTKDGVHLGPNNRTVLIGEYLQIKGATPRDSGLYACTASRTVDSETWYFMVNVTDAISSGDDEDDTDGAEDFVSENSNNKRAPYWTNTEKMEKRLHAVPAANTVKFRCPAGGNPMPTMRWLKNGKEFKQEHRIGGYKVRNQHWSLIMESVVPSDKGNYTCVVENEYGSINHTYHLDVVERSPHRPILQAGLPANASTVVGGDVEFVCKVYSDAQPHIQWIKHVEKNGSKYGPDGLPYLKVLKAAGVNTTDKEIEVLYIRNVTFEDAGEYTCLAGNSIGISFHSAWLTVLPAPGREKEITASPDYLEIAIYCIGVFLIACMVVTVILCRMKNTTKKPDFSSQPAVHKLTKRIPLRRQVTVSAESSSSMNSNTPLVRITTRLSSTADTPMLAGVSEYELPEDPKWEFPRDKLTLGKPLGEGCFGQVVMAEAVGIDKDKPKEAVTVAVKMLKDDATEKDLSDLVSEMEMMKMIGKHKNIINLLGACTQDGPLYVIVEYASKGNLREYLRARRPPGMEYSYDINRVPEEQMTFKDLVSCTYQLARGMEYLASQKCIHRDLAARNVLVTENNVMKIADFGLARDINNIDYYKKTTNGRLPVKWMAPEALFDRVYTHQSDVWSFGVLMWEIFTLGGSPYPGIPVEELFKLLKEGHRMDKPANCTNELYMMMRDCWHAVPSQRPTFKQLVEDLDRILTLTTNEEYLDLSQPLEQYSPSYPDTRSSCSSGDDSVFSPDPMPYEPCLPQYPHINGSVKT

Structure (SMILES)	IC50 [nM]
C=CC(=O)N1C[C@@H](n2nc(C#Cc3cc4ncn(C5CC5)c4c(F)c3F)c(C(N)=O)c2NC)C[C@@H]1C [Example 158, 3-[2-(1-cyclopropyl-6,7-difluoro-1,3-benzodiazol-5-yl)ethynyl]-1-[(3S,5S)-5-methyl-1-(prop-2-enoyl)pyrrolidin-3-yl]-5-(methylamino)pyrazole-4-carboxamide]	≤ 100
C=CC(=O)N1C[C@@H](n2nc(C#Cc3c(F)cc4c(ncn4C4CC4)c3F)c(C(N)=O)c2NC)C[C@@H]1C(F)F [Example 163, 3-[2-(1-Cyclopropyl-4,6-difluoro-1,3-benzodiazol-5-yl)ethynyl]-1-[(3S,5R)-5-(difluoromethyl)-1-(prop-2-enoyl)pyrrolidin-3-yl]-5-(methylamino)pyrazole-4-carboxamide]	≤ 100
C=CC(=O)N1C[C@@H](n2nc(C#Cc3cc4ncn(C5CC5)c4cc3F)c(C(N)=O)c2NC)C[C@H]1C [Example 164, 1-((3S,5R)-1-Acryloyl-5-methylpyrrolidin-3-yl)-3-((1-cyclopropyl-6-fluoro-1H-benzo[d]imidazol-5-yl)ethynyl)-5-(methylamino)-1H-pyrazole-4-carboxamide]	≤ 100
C=CC(=O)N1C[C@@H](n2nc(C#Cc3c(F)cc4c(ncn4C4CC4)c3F)c(C(N)=O)c2NC)C[C@H]1C [Example 165, 3-[2-(1-Cyclopropyl-4,6-difluoro-1,3-benzodiazol-5-yl)ethynyl]-1-[(3S,5R)-5-methyl-1-(prop-2-enoyl)pyrrolidin-3-yl]-5-(methylamino)pyrazole-4-carboxamide]	≤ 100
C=CC(=O)N1C[C@@H](n2nc(C#Cc3cc4ncn(C5CC5)c4cc3F)c(C(N)=O)c2NC)C[C@@H]1C [Example 169, 1-((3S,5S)-1-Acryloyl-5-methylpynolidin-3-yl)-3-((1-cyclopropyl-6-fluoro-1H-benzo[d]imidazol-5-yl)ethynyl)-5-(methylamino)-1H-pyrazole-4-carboxamide]	≤ 100
C=CC(=O)N1C[C@@H](n2nc(C#Cc3c(F)cc4c(ncn4C4CC4)c3F)c(C(N)=O)c2NC)C[C@H]1CF [Example 181, 3-[2-(1-Cyclopropyl-4,6-difluoro-1,3-benzodiazol-5-yl)ethynyl]-1-[(3S,5S)-5-(fluoromethyl)-1-(prop-2-enoyl)pyrrolidin-3-yl]-5-(methylamino)pyrazole-4-carboxamide]	≤ 100
C#CC(=O)N1C[C@@H](n2nc(C#Cc3cc4ncn(C5CC5)c4cc3F)c(C(N)=O)c2NC)C[C@@H]1COC [Example 182, 3-((1-Cyclopropyl-6-fluoro-1H-benzo[d]imidazol-5-yl)ethynyl)-1-((3S,5R)-5-(methoxymethyl)-1-propioloylpyrrolidin-3-yl)-5-(methylamino)-1H-pyrazole-4-carboxamide]	≤ 100
CC#CC(=O)N1C[C@@H](n2nc(C#Cc3cc4ncn(C5CC5)c4cc3F)c(C(N)=O)c2NC)C[C@@H]1COC [Example 183, 1-((3S,5R)-1-(But-2-ynoyl)-5-(methoxymethyl)pyrrolidin-3-yl)-3-((1-cyclopropyl-6-fluoro-1H-benzo[d]imidazol-5-yl)ethynyl)-5-(methylamino)-1H-pyrazole-4-carboxamide]	≤ 100
C#CC(=O)N1C[C@@H](n2nc(C#Cc3c(F)cc4c(ncn4C4CC4)c3F)c(C(N)=O)c2NC)C[C@@H]1COC [Example 184, 3-[2-(1-cyclopropyl-4,6-difluoro-1,3-benzodiazol-5-yl)ethynyl]-1-[(3S,5R)-5-(methoxymethyl)-1-(prop-2-ynoyl)pyrrolidin-3-yl]-5-(methylamino)pyrazole-4-carboxamide]	≤ 100
CC#CC(=O)N1C[C@@H](n2nc(C#Cc3c(F)cc4c(ncn4C4CC4)c3F)c(C(N)=O)c2NC)C[C@@H]1COC [Example 185, 1-[(3S,5R)-1-(But-2-ynoyl)-5-(methoxymethyl)pyrrolidin-3-yl]-3-[2-(1-cyclopropyl-4,6-difluoro-1,3-benzodiazol-5-yl)ethynyl]-5-(methylamino)pyrazole-4-carboxamide]	≤ 100
C=CC(=O)N1CC[C@H](n2nc(C#Cc3c(F)cc4c(ncn4C4CC4)c3F)c(C(N)=O)c2NC)C1 [Example 186, 3-[2-(1-Cyclopropyl-4,6-difluoro-1,3-benzodiazol-5-yl)ethynyl]-5-(methylamino)-1-[(3S)-1-(prop-2-enoyl)pyrrolidin-3-yl]pyrazole-4-carboxamide]	≤ 100
C=CC(=O)N1C[C@@H](n2nc(C#Cc3c(F)cc4c(ncn4C4CC4)c3F)c(C(N)=O)c2N)C[C@@H]1COC [Example 189, 5-amino-3-[2-(1-cyclopropyl-4,6-difluoro-1,3-benzodiazol-5-yl)ethynyl]-1-[(3S,5R)-5-(methoxymethyl)-1-(prop-2-enoyl)pyrrolidin-3-yl]pyrazole-4-carboxamide]	≤ 100
C=CC(=O)N1CC[C@H](n2nc(C#Cc3c(F)cc4c(ncn4C4CC4)c3F)c(C(N)=O)c2N)C1 [Example 190, 5-Amino-3-[2-(1-cyclopropyl-4,6-difluoro-1,3-benzodiazol-5-yl)ethynyl]-1-[(3S)-1-(prop-2-enoyl)pyrrolidin-3-yl]pyrazole-4-carboxamide]	≤ 100
C=CC(=O)N1C[C@@H](n2nc(C#Cc3cc4ncn(CC)c4cc3Cl)c(C(N)=O)c2NC)C[C@@H]1CO [Example 191, 3-[2-(6-Chloro-1-ethyl-1,3-benzodiazol-5-yl)ethynyl]-1-[(3S,5R)-5-(hydroxymethyl)-1-(prop-2-enoyl)pyrrolidin-3-yl]-5-(methylamino)pyrazole-4-carboxamide]	≤ 100
C=CC(=O)N1CC(n2nc(C#Cc3cc4ncn(CC)c4cc3Cl)c(C(N)=O)c2NC)C1 [Example 192, 3-[2-(6-chloro-1-ethyl-1,3-benzodiazol-5-yl)ethynyl]-5-(methylamino)-1-[1-(prop-2-enoyl)azetidin-3-yl]pyrazole-4-carboxamide]	≤ 100

Next, values leading:

IC50 [nM]	Structure (SMILES)
≤ 100	C=CC(=O)N1C[C@@H](n2nc(C#Cc3cc4ncn(C5CC5)c4cc3F)c(C(N)=O)c2NC)C[C@@H]1COC(F)F [Example 161, 1-((3S,5R)-1-acryloyl-5-((difluoromethoxy)methyl)pyrrolidin-3-yl)-3-((1-cyclopropyl-6-fluoro-1H-benzo[d]imidazol-5-yl)ethynyl)-5-(methylamino)-1H-pyrazole-4-carboxamide]
≤ 100	C=CC(=O)N1CC[C@H](n2nc(C#Cc3cc4ncn(C5CC5)c4cc3F)c(C(N)=O)c2N)C1 [Example 168, 5-Amino-3-[2-(1-cyclopropyl-6-fluoro-1,3-benzodiazol-5-yl)ethynyl]-1-[(3S)-1-(prop-2-enoyl)pyrrolidin-3-yl]pyrazole-4-carboxamide]
≤ 100	C=CC(=O)N1C[C@@H](n2nc(C#Cc3cc4ncn(C5CC5)c4cc3F)c(C(N)=O)c2NC)C[C@@H]1C(F)F [Example 170, 3-[2-(1-Cyclopropyl-6-fluoro-1,3-benzodiazol-5-yl)ethynyl]-1-[(3S,5R)-5-(difluoromethyl)-1-(prop-2-enoyl)pyrrolidin-3-yl]-5-(methylamino)pyrazole-4-carboxamide]
≤ 100	C=CC(=O)N1CC[C@H](n2nc(C#Cc3cc4ncn(C5CC5)c4c(F)c3F)c(C(N)=O)c2NC)C1 [Example 171]
≤ 100	C=C(F)C(=O)N1CC(n2nc(C#Cc3cc4ncn(C5CC5)c4cc3F)c(C(N)=O)c2NC)C1 [Example 172, 3-((1-Cyclopropyl-6-fluoro-1H-benzo[d]imidazol-5-yl)ethynyl)-1-(1-(2-fluoroacryloyl)azetidin-3-yl)-5-(methylamino)-1H-pyrazole-4-carboxamide]
≤ 100	C=C(F)C(=O)N1CC(n2nc(C#Cc3c(F)cc4c(ncn4C4CC4)c3F)c(C(N)=O)c2NC)C1 [Example 173, 3-((1-Cyclopropyl-4,6-difluoro-1H-benzo[d]imidazol-5-yl)ethynyl)-1-(1-(2-fluoroacryloyl)azetidin-3-yl)-5-(methylamino)-1H-pyrazole-4-carboxamide]
≤ 100	C=CC(=O)N1CC(n2nc(C#Cc3cc4ncn(C5CC5)c4cc3F)c(C(N)=O)c2NC)C1 [Example 175, 3-[2-(1-cyclopropyl-6-fluoro-1,3-benzodiazol-5-yl)ethynyl]-5-(methylamino)-1-[1-(prop-2-enoyl)azetidin-3-yl]pyrazole-4-carboxamide]
≤ 100	C=CC(=O)N1C[C@@H](n2nc(C#Cc3cc4ncn(C5CC5)c4cc3F)c(C(N)=O)c2NC)C[C@@H]1CF [Example 176, 1-((3S,5R)-1-acryloyl-5-(fluoromethyl)pyrrolidin-3-yl)-3-((1-cyclopropyl-6-fluoro-1H-benzo[d]imidazol-5-yl)ethynyl)-5-(methylamino)-1H-pyrazole-4-carboxamide]
≤ 100	C=CC(=O)N1C[C@@H](n2nc(C#Cc3c(F)cc4[nH]cnc4c3F)c(C(N)=O)c2NC)C[C@@H]1COC [Example 177, 1-((3S,5R)-1-acryloyl-5-(methoxymethyl)pyrrolidin-3-yl)-3-((4,6-difluoro-1H-benzo[d]imidazol-5-yl)ethynyl)-5-(methylamino)-1H-pyrazole-4-carboxamide]
≤ 100	C=CC(=O)N1C[C@@H](n2nc(C#Cc3ccc4c(c3)ncn4C3CC3)c(C(N)=O)c2NC)C[C@@H]1CF [Example 178, 1-((3S,5R)-1-Acryloyl-5-(fluoromethyl)pyrrolidin-3-yl)-3-((1-cyclopropyl-1H-benzo[d]imidazol-5-yl)ethynyl)-5-(methylamino)-1H-pyrazole-4-carboxamide]
≤ 100	C=CC(=O)N1C[C@@H](n2nc(C#Cc3c(F)cc4c(ncn4C4CC4)c3F)c(C(N)=O)c2NC)C[C@@H]1CF [Example 179, 1-((3S,5R)-1-Acryloyl-5-(fluoromethyl)pyrrolidin-3-yl)-3-((1-cyclopropyl-4,6-difluoro-1H-benzo[d]imidazol-5-yl)ethynyl)-5-(methylamino)-1H-pyrazole-4-carboxamide]
≤ 100	C=CC(=O)N1C[C@@H](n2nc(C#Cc3cc4ncn(C5CC5)c4cc3F)c(C(N)=O)c2NC)C[C@H]1CF [Example 180, 3-[2-(1-Cyclopropyl-6-fluoro-1,3-benzodiazol-5-yl)ethynyl]-1-[(3S,5S)-5-(fluoromethyl)-1-(prop-2-enoyl)pyrrolidin-3-yl]-5-(methylamino)pyrazole-4-carboxamide]
